In patent US20170065520A1, “STABLE LIPOSOMAL FORMULATIONS OF RAPAMYCIN AND RAPAMYCIN DERIVATIVES FOR TREATING CANCER” (Manli International Ltd, priority 2015, published 2017):

Experiment: In vitro drug release assay (dialysis tube, 50 kDal cut-off)
Type: physicochemical
Settings: control formulation (drug in 15% acetonitrile and 85% water), within 48 h
Procedure: An in vitro drug release assay was used to determine release profiles of umirolimus, sirolimus, and everolimus. Umirolimus-loaded liposomes were prepared as described above in EXAMPLE 1, and sirolimus-loaded and everolimus-loaded liposomes were prepared as described above in EXAMPLE 4.
For each drug, a control formulation was prepared containing 1.0 mg of drug in 5 mL of a solution containing 15% acetonitrile and 85% water. 5 mL of the control formulations and the liposomal formulations for each drug were loaded into separate dialysis tubes having a molecular weight cut-off of 50 kDal.
Each loaded dialysis tube was placed in an individual 50 mL tube containing 40 mL of release media (15% acetonitrile and 0.5% SDS). The release media in each tube was sampled after 1, 2, 5, 7, 24, 30, and 48 h and the drug concentration in the release media was determined by HPLC as described above in EXAMPLE 1. The cumulative drug release percentage versus release time was plotted for all samples. The results are shown in FIGS. 1, 2, and 3 for umirolimus, everolimus, and sirolimus, respectively.

starting amount of drug diffused out of the dialysis tubing: 67%
Substance: 40-alkoxyalkyl-rapamycin [umirolimus]
